The test system of this assay is 697B B-cell line, NF-kB luciferase reporter luminescence. Kind of assay: inhibitors of B-cell NF-kB luciferase signal – 697B cells, luminescence, selectivity assay for T-cell antigen receptor NF-kB inhibitors, dose response (AID 489033).

Active and inactive are the calls of the source. No rule for the calls is given here.

A word on the IC50: it is the midpoint of a concentration-inhibition curve. Take `CC(=O)NC(c1ccc2ccccc2c1)c1ccc2cccnc2c1O` (centres undefined): the IC50 was > 80 µM (inactive). For the compound `CCOC(=O)c1[nH]c(C)c(C(=O)c2cc(F)ccc2F)c1C`, the IC50 is > 80 µM (inactive). To `O=C1CC(c2cc(F)ccc2F)c2cc3c(cc2N1)CCC3` (centres undefined) belongs > 80 µM (inactive); to `Cc1ccc2[nH]c3c(c2c1)CCCC3NC(=O)CCl` (centres undefined), 1.67 µM; to `CCOC(=O)Nc1nc(-c2ccccc2)c(C(=O)c2ccc(Cl)cc2)s1`, > 80 µM (inactive). Take `CCCCC(=O)NC(c1ccc(Cl)cc1Cl)c1ccc2cccnc2c1O` (centres undefined): the IC50 was > 80 µM (inactive). Consider `O=C(Nc1nc2ccc(S(=O)(=O)N3CCCC3)cc2s1)C1CCCCC1`, for which the IC50 was > 80 µM (inactive). In the case of `CCO[C@@H]1OC(C(=O)NCc2nc3ccccc3[nH]2)=C[C@H](C(C)(C)C)[C@H]1CCCO` it was > 80 µM (inactive).

With `COc1cc(NCCCCCCCN)c2ncccc2c1`, the IC50 was 41.4 µM (inactive). With `CC(=O)O[C@H]1C(=O)[C@]2(C)[C@H]([C@H](OC(=O)c3ccccc3)[C@]3(O)C[C@H](OC(=O)[C@H](O)[C@@H](NC(=O)c4ccccc4)c4ccccc4)C(C)=C1C3(C)C)[C@]1(OC(C)=O)CO[C@@H]1C[C@@H]2O`, the IC50 is > 80 µM (inactive).

With `N/C(=N\OCc1ccc([N+](=O)[O-])cc1)c1ccccn1`, the 50% inhibitory concentration (IC50) was 2.43 µM. For `C=CCNC(=S)N/N=C(\C)c1ccccn1`, the concentration for half-maximal inhibition (IC50) was 0.61 µM.

For the compound `COc1ccc(CCNc2cc(N3CCN(C(=O)c4ccccc4F)CC3)ccc2[N+](=O)[O-])cc1OC`, the IC50 was > 80 µM (inactive). In the case of `O=C(NCc1cccs1)C1CCN(c2ccc(S(=O)(=O)N3CCOCC3)cc2Cl)CC1` it was > 80 µM (inactive). Consider `Cc1cc(C)cc(NC(=O)c2cc(C)n(Cc3cccs3)c2C)c1`, for which the IC50 was 24.1 µM (inactive).

As for `COc1cc(C(=O)Nc2ccc3c(c2)CCN3C(C)=O)cc(OC)c1OC`, the IC50 was > 80 µM (inactive). On to `Cc1sc2ncnc(NC3CCN(Cc4ccccc4)CC3)c2c1C`, for which the half-maximal inhibitory concentration (IC50) is 2.51 µM. For the compound `Cc1cc(O)c2c(c1O)C(=O)[C@]13C(=C2O)C(=O)[C@@H]2[C@@H](O)[C@H]1[C@@H]1[C@H](O)[C@H]3C(=O)C3=C(O)c4c(O)cc(C)c(O)c4C(=O)[C@]312`, the IC50 was > 80 µM (inactive). `COc1ccc([C@H]2CC(=O)C=C(c3ccc(OC)cc3OC)C2)cc1`: the IC50 was > 80 µM (inactive). As for `Cc1c(C)c2cccnc2c2ncccc12`, the IC50 is 6.81 µM. As for `O=C(Cc1ccc(-c2ccccc2)cc1)NCc1ccccc1`, the IC50 is > 80 µM (inactive). For `CC(C)CCOc1cccc(OCC(=O)Nc2ccncc2)c1`, the IC50 was > 80 µM (inactive).

Regarding `CC(=O)O[C@H]1C(=O)[C@@]2(C)[C@H]([C@H](OC(=O)c3ccccc3)[C@]3(O)C[C@H](OC(=O)[C@H](O)[C@@H](NC(=O)c4ccccc4)c4ccccc4)C(C)=C1C3(C)C)[C@]1(OC(C)=O)CO[C@@H]1C[C@@H]2O`, the IC50 was > 80 µM (inactive). Consider `Cc1oc2c(c1C(=O)NCc1cccnc1)C(=O)c1ccccc1C2=O`, for which the IC50 was 4.69 µM. As to `COC(=O)c1[nH]c2c(c1C)C(=O)CC(c1cccc(OC)c1)C2` (centres undefined), the IC50 is > 80 µM (inactive). `Cc1c(C(=O)N/N=C/c2ccc(Cl)cc2)[nH]c2ccc(Cl)cc12`: the IC50 was > 80 µM (inactive). Consider `COc1ccc(S(=O)(=O)/N=C2\C=C(Nc3ccc(O)cc3)C(=O)c3ccccc32)cc1`, for which the half-inhibitory concentration (IC50) is 2.18 µM. In the case of `Cc1ccc(C(=O)Nc2ncc(Cc3ccc(SC(F)F)cc3)s2)cc1` it was > 80 µM (inactive). On to `CC(=O)NC(c1ccc(C(C)C)cc1)c1ccc2cccnc2c1O` (centres undefined), for which the IC50 is > 80 µM (inactive). In the case of `O=[N+]([O-])c1ccc(O)c(/C=N/Nc2ccc(Cl)nn2)c1` it was > 80 µM (inactive). As to `CC(=O)c1ccc(N2CCN(S(=O)(=O)c3ccc4c(c3)CC(C)N4C(=O)C3CC3)CC2)cc1` (centres undefined), the IC50 was 0.72 µM. Turning to `Cc1ccc2nc(C)c(CN3CCN(c4ccc([N+](=O)[O-])cc4Cl)CC3)n2c1`, the IC50 was > 80 µM (inactive).

Turning to `COc1ccc(N(C(=O)c2ccccc2C)S(=O)(=O)c2cccs2)cc1`, the IC50 is > 80 µM (inactive). To `O=c1oc2ccccc2cc1-c1cn(-c2ccccc2)c(=S)[nH]1` belongs 0.55 µM; to `COc1cc(Nc2ccc(C)cc2)c([N+](=O)[O-])nc1[N+](=O)[O-]`, > 80 µM (inactive); to `COc1ccccc1N=C(C)C1=C(O)CC(c2ccccc2)CC1=O` (centres undefined), > 80 µM (inactive). Consider `CCCC[C@@H](C)C[C@@H](C)C(=O)N(C)[C@@H](CC(C)C)C(=O)N[C@H](C(=O)N(C)[C@H](C(=O)N1C[C@@H](O)C[C@H]1C(=O)N1C(=O)C=C[C@@H]1C)C(C)C)C(C)OC(C)=O` (some centres undefined), for which the IC50 was below 0.16 µM.

Take `COC(=O)c1ccccc1NC(=O)Cn1c(-c2nonc2N)nc2ccccc21`: the IC50 is > 80 µM (inactive). Take `Cc1ccc2c(c1)sc(-c1ccc(N(C)C)cc1)[n+]2C`: the IC50 was 33.6 µM (inactive). On to `COc1cccc2sc(Nc3nnc(-c4ccccc4Cl)o3)nc12`, for which the IC50 was 3.64 µM. Regarding `CN(C)c1ccc(-[n+]2c(-c3ccccc3)cc(-c3ccccc3)cc2-c2ccccc2)cc1`, the half-inhibitory concentration (IC50) was 0.79 µM.

As to `CCCCCN1C=CC(=C2C(=O)c3ccccc3C2=O)C=C1`, the 50% inhibitory concentration (IC50) is 0.38 µM. As to `O=C(NCCc1ccccc1)c1ccc2c(c1)OCCO2`, the IC50 is 1.12 µM. For `COc1ccc(C2=Nn3c([n+](C)c4ccccc43)SC2)cc1`, the IC50 is 31 µM (inactive). On to `COc1cccc(-c2cc(=O)c3cc(NC(=O)c4ccccc4)ccc3[nH]2)c1`, for which the IC50 is > 80 µM (inactive). In the case of `CC/C=C/CC(=O)N[C@@H](c1ccccc1)[C@@H](O)C(=O)O[C@H]1C[C@@]2(O)[C@@H](OC(=O)c3ccccc3)C3[C@](C)(C(=O)[C@H](OC(C)=O)C(=C1C)C2(C)C)[C@@H](O)C[C@H]1OC[C@@]31OC(C)=O` (some centres undefined) it was > 80 µM (inactive); in that of `O=C(Nc1nc(-c2ccccn2)cs1)c1ccc(Cl)s1`, below 0.16 µM.

Consider `COC(=O)c1ccc(C)c(NS(=O)(=O)c2ccc3c(c2)OCCO3)c1`, for which the IC50 was > 80 µM (inactive). To `COc1ccc(C2=Nn3c(nnc3-c3ccccc3OC)SC2)cc1OC1CCCC1` belongs 3.54 µM; to `CC(C)(C)c1cc(C=C(C#N)C#N)cc(C(C)(C)C)c1O`, > 80 µM (inactive). In the case of `CCN(CC)c1ccc(NC(=O)c2cc(OC)cc(OC)c2)c(C)c1`, the IC50 is > 80 µM (inactive).

Regarding `COc1ccc2c(c1)/C(=C/c1cnc[nH]1)C(=O)N2`, the IC50 was 4.8 µM.

In the case of `O=S1(=O)C=C(Sc2nc3ccccc3s2)c2ccccc21`, the IC50 was 0.32 µM. In the case of `COc1cc(C2C(C#N)=C(N)Oc3cc(N(C)C)ccc32)cc2c1OCO2` (centres undefined) it was > 80 µM (inactive); in that of `CNC[C@H](CC1CCCCC1)NC[C@H](Cc1ccccc1)NCCC12CC3CC(CC(C3)C1)C2`, 7.73 µM; in that of `C=C1C(O)[C@@H]2O[C@]3(CC[C@H](/C=C/C(C)[C@@H]4CC(C)=CC5(O[C@H](C[C@@](C)(O)CO)CCC5O)O4)O3)CC[C@H]2O[C@@H]1C(O)CC(C)[C@H]1OC2(CCCCO2)CCC1C` (some centres undefined), 3.19 µM.

As to `O=C1C=CC(O)(c2cc(=O)c3c(O)cc(O)cc3o2)C=C1`, the concentration for half-maximal inhibition (IC50) is 1.62 µM. Consider `O=C(Nc1ccn(Cc2ccccc2F)n1)c1ccc(COc2ccc(Br)cc2)cc1`, for which the IC50 is > 80 µM (inactive). For `CC(C)c1oc(=O)cc2c1[C@@H](O)[C@H]1OC(=O)[C@@]3(C)CC[C@@H](O)[C@@]2(C)C13` (some centres undefined), the half-inhibitory concentration (IC50) was 14 µM. To `C=CC[C@@H](CC/C=C/C=C/CC/C=C\[C@@H]1CSC([C@@H]2C[C@@H]2C)=N1)OC` belongs 15.3 µM; to `Cc1ccc(O)c(NC(=O)CCC2CCCCC2)c1`, > 80 µM (inactive). As to `Cc1ccc(N2C(=O)c3cccc4c(N)ccc(c34)C2=O)c2cccnc12`, the IC50 is > 80 µM (inactive). Consider `CN1/C(=C\C(=O)C[n+]2ccc3ccccc3c2)C(C)(C)c2ccccc21`, for which the IC50 was > 80 µM (inactive). In the case of `Cn1nc(-c2ccccn2)nc2c(=O)n(C)c(=O)nc1-2` it was 4.12 µM; in that of `CCOc1ccc(N/C(N)=N/c2nc(CSc3nnc(C)s3)cc(=O)[nH]2)cc1`, > 80 µM (inactive). To `CCCCCC(=O)N[C@@H](c1ccccc1)[C@@H](O)C(=O)O[C@H]1C[C@@]2(O)[C@@H](OC(=O)c3ccccc3)C3[C@](C)(C(=O)[C@H](OC(C)=O)C(=C1C)C2(C)C)[C@@H](O)C[C@H]1OC[C@@]31OC(C)=O` (some centres undefined) belongs > 80 µM (inactive).

Turning to `Cc1ccc(Oc2ccc(OCC(=O)Nc3ccncc3)cc2)cc1`, the IC50 was 58.6 µM (inactive).

Take `CC(=O)O[C@@]12CO[C@@H]1C[C@H](O)[C@@]1(C)C(=O)[C@H](O)C3=C(C)[C@@H](OC(=O)[C@H](O)[C@@H](NC(=O)c4ccccc4)c4ccccc4)C[C@@](O)([C@@H](OC(=O)c4ccccc4)C12)C3(C)C` (some centres undefined): the IC50 is > 80 µM (inactive). To `C[C@]12CC[C@@H]3c4cc(O)c(O)cc4CC[C@H]3[C@@H]1CC[C@@H]2O` belongs 14.3 µM; to `COc1ccc(Nc2nc(-c3sc(C)nc3C)cs2)cc1`, > 80 µM (inactive); to `O=C(Nc1ccc(Cc2ccncc2)cc1)c1ccc(S(=O)(=O)N2CCCC2)cc1`, 5.3 µM. In the case of `O=C(Nc1ccc(N2CCOCC2)cc1)c1ccc(Cl)c(S(=O)(=O)N2CCCCC2)c1` it was > 80 µM (inactive); in that of `CCOc1ccc(N(CC(=O)Nc2ccccc2C)S(=O)(=O)c2c(C)noc2C)cc1`, > 80 µM (inactive); in that of `CCOC(=O)C(C)Oc1cccc2c(=O)n(CC(=O)NCc3ccc(F)cc3)ccc12` (centres undefined), > 80 µM (inactive). Consider `O=C(Nc1cccc2ccccc12)OC1C=CS(=O)(=O)C1` (centres undefined), for which the half-maximal inhibitory concentration (IC50) is 10.7 µM. In the case of `COc1ccccc1-c1nnc2n1N=C(c1ccc(O)c(O)c1)CS2` it was 77.9 µM (inactive); in that of `CCCOc1ccccc1C1CC(=O)Nc2cc3c(cc21)OCO3` (centres undefined), > 80 µM (inactive). In the case of `CC(C)(C)OC(=O)NCCCCCc1cn(CC(=O)NCCCCCCCCCCC(=O)N2CCN(C(=O)OC(C)(C)C)CC2)nn1` it was > 80 µM (inactive); in that of `CC(C)n1c(CN(C)Cc2ccccc2)nc2c1c(=O)n(C)c(=O)n2C`, 43.7 µM (inactive).

Source of the values: PubChem BioAssay AID489033 (Sanford-Burnham Center for Chemical Genomics, 2010).
